Assay results: patent US20260085073A1, “PYRAZOLYLCARBOXAMIDE COMPOUNDS AND THEIR USE IN THERAPY” (Hotspot Therapeutics, Inc., priority 2022, published 2026)

The compounds below were run against T1, MALT1 (Homo sapiens, UniProt Q9UDY8) (assay: MALT1 inhibition assay (MALT-1 Fluorogenic Peptide Cleavage Assay, Ac-LRSR-AMC substrate)). Conditions: Avi-tagged FL MALT-1, 30 min pre-incubation, 90 min reaction at room temperature, fluorescence intensity.
T1 construct: Avi-tagged FL MALT-1 (Pharmaron, stored at −70° C.); Avi-tag
T1 sequence (Q9UDY8 1-824): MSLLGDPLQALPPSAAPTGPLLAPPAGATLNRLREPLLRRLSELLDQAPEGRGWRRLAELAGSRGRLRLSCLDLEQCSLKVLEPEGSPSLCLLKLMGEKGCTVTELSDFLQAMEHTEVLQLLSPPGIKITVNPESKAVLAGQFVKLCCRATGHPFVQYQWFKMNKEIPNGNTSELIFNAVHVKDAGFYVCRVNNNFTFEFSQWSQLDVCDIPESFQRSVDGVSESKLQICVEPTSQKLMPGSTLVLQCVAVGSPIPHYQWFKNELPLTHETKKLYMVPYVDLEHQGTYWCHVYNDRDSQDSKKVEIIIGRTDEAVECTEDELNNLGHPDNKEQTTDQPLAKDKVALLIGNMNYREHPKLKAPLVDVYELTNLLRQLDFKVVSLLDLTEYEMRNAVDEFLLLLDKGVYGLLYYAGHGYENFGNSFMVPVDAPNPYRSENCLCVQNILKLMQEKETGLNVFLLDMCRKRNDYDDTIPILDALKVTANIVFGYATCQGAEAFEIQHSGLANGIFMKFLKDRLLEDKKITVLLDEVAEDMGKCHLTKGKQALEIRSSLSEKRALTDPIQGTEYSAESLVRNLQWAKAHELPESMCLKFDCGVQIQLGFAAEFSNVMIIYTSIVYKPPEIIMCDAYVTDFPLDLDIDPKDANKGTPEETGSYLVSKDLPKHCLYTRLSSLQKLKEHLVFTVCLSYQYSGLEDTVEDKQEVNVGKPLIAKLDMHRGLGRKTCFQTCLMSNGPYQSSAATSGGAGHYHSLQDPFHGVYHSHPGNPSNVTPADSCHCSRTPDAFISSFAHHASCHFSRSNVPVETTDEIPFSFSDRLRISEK
Format: biochemical
Summary of the method: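 Full-length Avi-tagged MALT1 pre-incubated 30 min at room temperature with compounds (2% DMSO final) in HEPES pH 6.89, sodium citrate, TCEP, EDTA, CHAPS buffer. Ac-LRSR-AMC added from 50 µM (Km) or […] working stocks; 90 min at room temperature, AMC fluorescence (ex 342/em 441 nm); IC50 from % inhibition curves.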

Compound | IC50
O=C1c2c(C(F)(F)F)c(-c3ccccc3)nn2CCCN1c1ccnc(C(F)(F)F)c1 [Compound I-183, 2-phenyl-3-(trifluoromethyl)-5-(2-(trifluoromethyl)pyridin-4-yl)-5,6,7,8-tetrahydro-4H-pyrazolo[1,5-a][1,4]diazepin-4-one] | > 10000 nM
O=C1c2c(C(F)(F)F)c(-c3ccccc3)nn2CCN1c1ccnc(C(F)(F)F)c1 [Compound I-184] | > 10000 nM
CN(C)CCn1nc(-c2cccc3ccoc23)c(C(F)(F)F)c1C(=O)Nc1cnc(-n2nccn2)c(C#N)c1 [Compound I-186, 3-(benzofuran-7-yl)-N-(5-cyano-6-(2H-1,2,3-triazol-2-yl)pyridin-3-yl)-1-(2-(dimethylamino)ethyl)-4-(trifluoromethyl)-1H-pyrazole-5-carboxamide] | < 500 nM
O=C(Nc1cnc(-n2nccn2)c(C(F)(F)F)c1)c1c(C(F)(F)F)c(-c2ccccc2)nn1C1CC1 [Compound I-190] | 500 to 2500 nM
O=C(Nc1cnc(-n2nccn2)c(Cl)c1)c1nn(C2CC2)c(-c2ccccc2)c1C(F)(F)F [Compound I-191] | 500 to 2500 nM
O=C(Nc1ccnc(C(F)(F)F)c1)c1nn(C2CC2)c(-c2ccccc2)c1C(F)(F)F [Compound I-192] | 500 to 2500 nM
Cn1nc(C(=O)c2ccccc2)c(C(F)(F)F)c1C(=O)Nc1ccnc(C(F)(F)F)c1 [Compound I-193, 3-benzoyl-1-methyl-4-(trifluoromethyl)-N-(2-(trifluoromethyl)pyridin-4-yl)-1H-pyrazole-5-carboxamide] | 500 to 2500 nM
Cn1nc(-c2cnc(CO)c3ccccc23)c(C(F)(F)F)c1C(=O)Nc1ccnc(C(F)(F)F)c1 [Compound I-194, 3-(1-(hydroxymethyl)isoquinolin-4-yl)-1-methyl-4-(trifluoromethyl)-N-(2-(trifluoromethyl)pyridin-4-yl)-1H-pyrazole-5-carboxamide] | 2500 to 10000 nM
Cn1nc(-c2cnc3ccccn23)c(C(F)(F)F)c1C(=O)Nc1ccnc(C(F)(F)F)c1 [Compound I-195, 3-(imidazo[1,2-a]pyridin-3-yl)-1-methyl-4-(trifluoromethyl)-N-(2-(trifluoromethyl)pyridin-4-yl)-1H-pyrazole-5-carboxamide] | > 10000 nM
Cn1nc(-c2ccc(F)c(N)n2)c(C(F)(F)F)c1C(=O)Nc1ccnc(C(F)(F)F)c1 [Compound I-196, 3-(6-amino-5-fluoropyridin-2-yl)-1-methyl-4-(trifluoromethyl)-N-(2-(trifluoromethyl)pyridin-4-yl)-1H-pyrazole-5-carboxamide] | 500 to 2500 nM
Cn1nc(-c2cccc3c2CCNC3)c(C(F)(F)F)c1C(=O)Nc1ccnc(C(F)(F)F)c1 [Compound I-197] | > 10000 nM
COc1c(-c2nn(C)c(C(=O)Nc3ccnc(C(F)(F)F)c3)c2C(F)(F)F)ccnc1N [Compound I-199] | 2500 to 10000 nM
Cn1nc(C2CCNCC2)c(C(F)(F)F)c1C(=O)Nc1ccnc(C(F)(F)F)c1 [Compound I-200] | > 10000 nM
Cn1nc(Oc2ccccc2)c(C(F)(F)F)c1C(=O)Nc1ccnc(C(F)(F)F)c1 [Compound I-206] | 500 to 2500 nM
Cn1nc(-c2ccccc2)cc1C(=O)Nc1ccc(C(=O)N2CC(O)C2)c(Cl)c1 [Compound I-207] | > 10000 nM
CN(c1ccccc1)c1nn(C)c(C(=O)Nc2ccnc(C(F)(F)F)c2)c1C(F)(F)F [Compound I-209] | 500 to 2500 nM
Cn1nc(-c2cccc3nscc23)c(C(F)(F)F)c1C(=O)Nc1ccnc(C(F)(F)F)c1 [Compound I-210, 3-(benzo[c]isothiazol-4-yl)-1-methyl-4-(trifluoromethyl)-N-(2-(trifluoromethyl)pyridin-4-yl)-1H-pyrazole-5-carboxamide] | < 500 nM
Cc1ccc2ncsc2c1-c1nn(C)c(C(=O)Nc2ccnc(C(F)(F)F)c2)c1C(F)(F)F [Compound I-223] | 500 to 2500 nM

Results, then the compound that gave them:

IC50 | Compound
2500 to 10000 nM | Cn1nc(-c2cccc3c(=O)[nH]cnc23)c(C(F)(F)F)c1C(=O)Nc1ccnc(C(F)(F)F)c1 [Compound I-187, 1-methyl-3-(4-oxo-3,4-dihydroquinazolin-8-yl)-4-(trifluoromethyl)-N-(2-(trifluoromethyl)pyridin-4-yl)-1H-pyrazole-5-carboxamide]
< 500 nM | O=C(Nc1cnc(-n2nccn2)c(Cl)c1)c1nn2c(c1C(F)(F)F)-c1ccccc1CC2 [Compound I-188, N-(5-chloro-6-(2H-1,2,3-triazol-2-yl)pyridin-3-yl)-1-(trifluoromethyl)-5,6-dihydropyrazolo[5,1-a]isoquinoline-2-carboxamide]
< 500 nM | O=C(Nc1cnc(-n2nccn2)c(Cl)c1)c1c(C(F)(F)F)c(-c2ccccc2)nn1C1CC1 [Compound I-189, N-(5-chloro-6-(2H-1,2,3-triazol-2-yl)pyridin-3-yl)-1-cyclopropyl-3-phenyl-4-(trifluoromethyl)-1H-pyrazole-5-carboxamide]
< 500 nM | Cn1nc(-c2cc(N)ncc2Cl)c(C(F)(F)F)c1C(=O)Nc1ccnc(C(F)(F)F)c1 [Compound I-198]
> 10000 nM | Cn1nc(-c2n[nH]c3cnccc23)c(C(F)(F)F)c1C(=O)Nc1ccnc(C(F)(F)F)c1 [Compound I-201]
> 10000 nM | Cn1nc(-c2c[nH]c3ncncc23)c(C(F)(F)F)c1C(=O)Nc1ccnc(C(F)(F)F)c1 [Compound I-202, 1-methyl-3-(7H-pyrrolo[2,3-d]pyrimidin-5-yl)-4-(trifluoromethyl)-N-(2-(trifluoromethyl)pyridin-4-yl)-1H-pyrazole-5-carboxamide]
2500 to 10000 nM | Cn1nc(-c2ccccc2CC(F)(F)F)cc1C(=O)Nc1ccnc(C(F)(F)F)c1 [Compound I-203, 1-methyl-3-(2-(2,2,2-trifluoroethyl)phenyl)-N-(2-(trifluoromethyl)pyridin-4-yl)-1H-pyrazole-5-carboxamide]
2500 to 10000 nM | Cn1nc(C(=O)Nc2ccnc(C(F)(F)F)c2)c(C2CC2)c1-c1ccccc1 [Compound I-204, 4-cyclopropyl-1-methyl-5-phenyl-N-(2-(trifluoromethyl)pyridin-4-yl)-1H-pyrazole-3-carboxamide]
500 to 2500 nM | Cn1nc(-c2ccccc2)c(C2CC2)c1C(=O)Nc1ccnc(C(F)(F)F)c1 [Compound I-205]
2500 to 10000 nM | Cn1nc(COc2ccccc2)c(C(F)(F)F)c1C(=O)Nc1ccnc(C(F)(F)F)c1 [Compound I-208]
2500 to 10000 nM | O=C(Nc1cnc(-n2nccn2)c(Cl)c1)c1c(C(F)(F)F)c(-c2ccccc2)nn1CCO [Compound I-211, N-(5-chloro-6-(2H-1,2,3-triazol-2-yl)pyridin-3-yl)-1-(2-hydroxyethyl)-3-phenyl-4-(trifluoromethyl)-1H-pyrazole-5-carboxamide]
2500 to 10000 nM | Cn1nc(-c2cccc3ncn(C)c23)c(C(F)(F)F)c1NC(=O)c1ccnc(C(F)(F)F)c1 [Compound I-221, N-(1-methyl-3-(1-methyl-1H-benzo[d]imidazol-7-yl)-4-(trifluoromethyl)-1H-pyrazol-5-yl)-2-(trifluoromethyl)isonicotinamide]
< 500 nM | Cn1nc(-c2cccc3nccn23)c(C(F)(F)F)c1C(=O)Nc1cnc(-n2nccn2)c(C(F)(F)F)c1 [Compound I-222]
500 to 2500 nM | Cn1nc(-c2cccc3cncn23)c(C(F)(F)F)c1C(=O)Nc1ccnc(C(F)(F)F)c1 [Compound I-224]
> 10000 nM | Cn1nc(-c2cnc3cnccn23)c(C(F)(F)F)c1C(=O)Nc1ccnc(C(F)(F)F)c1 [Compound I-225]
> 10000 nM | Cc1nc2cccc(-c3nn(C)c(C(=O)Nc4ccnc(C(F)(F)F)c4)c3C(F)(F)F)c2s1 [Compound I-226]
